Assay results reported in patent publication EP0522596A1, “Method and means for inducing constriction of the pupil in the eye” (Kabi Pharmacia AB, priority 1989, dated 1993).
“Also recorded” adds a separate entry of the source. Ends that are not written are not given here.

What was measured:
pupil [1] = assay: Capsaicin-induced miosis in monkeys with and without Lorglumide pretreatment; type: in vivo, Macaca fascicularis
Description: Example 7: Monkeys (Macaca fascicularis) were anesthesized, pretreated with atropine and cannulated as described in Example 1. Then 10 µl of a 1% solution of Capsaicin was injected into the anterior chamber; the diameter of the pupil was measured 15 minutes later. The decrease in pupil size obtained with this dose varied from 0 to 1.5 mm.

pupil [2] = assay: Antagonism of the CCK-8 miosis dose-response in the monkey eye in vivo; parameters: species or system monkeys; details: 0.75 µg of Lorglumide injected into the anterior chamber
Description: Example 5: Dose-response determination of CCK-8 was carried out on one eye of atropine treated, pentobarbital anesthesized monkeys in accordance with the description in Example 1. Thereafter 0.75µg of Lorglumide in 15µl of isotonic saline was injected into the anterior chamber of the other eye. The CCK-8 dose-response relationship was then determined in the same way as in the case of the first eye.

[3] = tested on: receptor present on the sphincter muscle; type: in vivo; details: nerve blockade with tetrodotoxin; pretreatment with indomethacin
pupil [4] = details: primates; Mandahl et al., 1980; cited from earlier work
[5] = tested on: sphincter muscle of the iris; details: injected into the anterior chamber; Bill et al., 1979; cited from earlier work

## CCCCCN(CCCCC)C(=O)C(CCC(=O)O)NC(=O)c1ccc(Cl)c(Cl)c1 (racemic) [Lorglumide, D,L-4-(3,4-dichlorobenzoylamino)-5-(dipentylamino)-5-oxo-pentanoic acid]
Pupil [1]; pretreatment with 7.5 µg Lorglumide in 15 µl, capsaicin-sensitive animals
  effect on the pupil response to Capsaicin: decreased the response to Capsaicin; also recorded: most of the effect on the pupil was eliminated
Pupil [2]
  shift of the CCK-8 dose-response curve to the right: more than one order of magnitude

## COc1cc(CNC(=O)CCCCC=CC(C)C)ccc1O [Capsaicin, 8-methyl-N-vanillyl-6-nonenamide]
Pupil [1]; cynomolgus monkey, in vivo
  miotic response in monkeys: less consistent and less pronounced as compared to the response in rabbits

## COc1ccc2c(c1)c(CC(=O)O)c(C)n2C(=O)c1ccc(Cl)cc1 [indomethacin]
[3]
  effect of pretreatment on the miosis response to CCK: do not cause a decrease in the miosis response

## substance P (RPKPQQFFGLM; ends and bridges not checked; UniProt P20366 58-68, looked up) [neuropeptide released in the eye on irritation; synthetically produced]
Pupil [4]
  pupillary response to substance P: totally absent
[5]
  response of the sphincter muscle of the iris: substantial contractive response
